Tests used:
BTK = biological target: T1, BTK (Homo sapiens, UniProt Q06187); assay: BTK degradation activity test in Mino cells; type: cell-based; conditions: 16 h incubation, Western blot or Elisa
T1 construct: endogenous in cells; host or cells: Mino cells
Summary of the method: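 DC50 derived by curve fitting of BTK degradation rates versus untreated control across compound concentrations. Mino cells were exposed for 16 h; BTK levels in lysates, normalised via BCA protein, measured by Western blot or ELISA.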

Mino cells = assay: Inhibitory activity on Mino cell proliferation (MTS); type: cell-based; conditions: Homo sapiens, 168 h incubation
Summary of the method: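 Cells seeded at 10000/well, treated with compounds from 1000 nM (4-fold, 8 points) for 72 h (OCI-LY10) or 168 h (Mino) at 37° C. MTS added for 2 h, stopped with SDS, absorbance read at 490 and 650 nm; IC50 from dose-response fit.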

[1] = Stability of compounds in human liver microsome; type: in vitro ADME; conditions: human liver microsomes, NADPH, 37° C., sampling 0-120 min; read-out: Human liver microsome T1/2
Procedure: Compound to be tested: the compound to be tested (1 mg) was dissolved in DMSO (10 mL) to formulate to 0.1 mg/mL.
Internal standard compound: the internal standard compound (1 mg) was dissolved in DMSO (10 mL), 10 μL was taken and diluted to 10 mL to formulate to 100 ng/mL.
NADPH solution: NADPH (2.08 mg) was dissolved in PBS (50 μL) buffer to formulate to 50 mM.
Under the condition of ice bath, 1 mg of human liver microparticles was add to PBS (1 mL) buffer, then NADPH (20 μL) was added, and incubated at 37° C. for 5 min. 10 μL of the compound to be tested was added, and then samples were taken at 0, 15, 30, 60 and 120 min respectively. 10 μL of the solution was taken with a pipette each time and added to 490 μL of the solution containing the internal standard compound. The resulting solution was vortexed and then placed on ice, and then sampling at another time point continues. All samples were centrifuged at 10,000 rpm for 10 min, and the supernatant was taken for LC/MS testing. The metabolism of the compound in liver microsomes was calculated based on the peak area.

OCI-LY10 cells = assay: Inhibitory activity on OCI-LY10 cell proliferation (MTS); type: cell-based; conditions: Homo sapiens, 72 h
Procedure: The anti-tumor efficacy of the compounds was tested by measuring their inhibitory effects on OCI-LY10 and Mino cell proliferation. OCI-LY10 and Mino cells were cultured in RPMI-1640 medium containing 10% fetal calf serum. OCI-LY10 and Mino cells were digested, inoculated in a 96-well plate at a cell concentration of 10000 cells/well, and incubated overnight at 37° C., 5% CO2. Compounds of different concentrations (1000 nM, 4-fold dilution, 8 points) were added to the 96-well plate and incubated for 72 h (LY10) or 168 h (Mino) at 37° C. and 5% CO2, and then 20 uL of MTS was added to each well. After incubation for 2 h, 25 μl of 10% SDS was added to each well to terminate the reaction. The absorbance at 490 nm and 650 nm were measured with a microplate reader. IC50 was calculated using GraphPad Prism 5.0.

T1 sequence (Q06187 whole entry): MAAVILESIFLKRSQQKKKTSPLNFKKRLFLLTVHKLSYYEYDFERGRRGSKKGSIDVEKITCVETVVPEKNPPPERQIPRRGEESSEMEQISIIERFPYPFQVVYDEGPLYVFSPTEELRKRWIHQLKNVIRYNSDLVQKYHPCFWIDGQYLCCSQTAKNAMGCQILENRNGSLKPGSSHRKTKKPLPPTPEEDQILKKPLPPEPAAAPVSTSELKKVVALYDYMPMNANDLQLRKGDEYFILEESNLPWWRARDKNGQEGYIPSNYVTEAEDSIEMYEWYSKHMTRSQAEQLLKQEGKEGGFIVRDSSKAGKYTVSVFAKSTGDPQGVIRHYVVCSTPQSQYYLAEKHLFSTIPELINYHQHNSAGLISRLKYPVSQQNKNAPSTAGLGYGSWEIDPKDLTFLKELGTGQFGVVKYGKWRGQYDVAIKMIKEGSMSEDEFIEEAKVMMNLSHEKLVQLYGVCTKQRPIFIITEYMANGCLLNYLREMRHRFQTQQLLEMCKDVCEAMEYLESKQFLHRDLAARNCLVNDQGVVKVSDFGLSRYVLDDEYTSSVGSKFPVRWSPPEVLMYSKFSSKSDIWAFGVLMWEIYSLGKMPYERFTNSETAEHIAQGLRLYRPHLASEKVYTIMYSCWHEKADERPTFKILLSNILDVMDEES

Row | Structure (SMILES) | DC50 (BTK) [nM] | IC50 (Mino cells) [nM] | half-life at 0.97 µg/mL [1] [min] | IC50 (OCI-LY10 cells) [nM]
1 | CN1CCN([C@@H]2CCCN(c3nnc(C(N)=O)c(Nc4ccc(N5CCN(CC6CCN(c7ccc8c9c([nH]c8c7)C(=O)N(C7CCC(=O)NC7=O)C9)CC6)CC5)c(F)c4)n3)C2)C1=O (stereo partly drawn) [Compound 222, 5-((4-(4-((1-(2-(2,6-dioxopiperidin-3-yl)-3-oxo-1,2,3,4-tetrahydropyrrolo[3,4-b]indol-6-yl)piperidin-4-yl)methyl)piperazin-1-yl)-3-fluorophenyl)amino)-3-((R)-3-(3-methyl-2-oxoimidazolidin-1-yl)piperidin-1-yl)-1,2,4-triazin-6-carboxamide] | < 1 | 4.15 | > 30 | 
2 | CN1CCN([C@@H]2CCCN(c3nnc(C(N)=O)c(Nc4ccc(N5CCN(CC6CCN(c7ccc(N8CCC(=O)NC8=O)c(F)c7)CC6)CC5)c(F)c4)n3)C2)C1=O [Compound 184, (R)-5-((4-(4-((1-(4-(2,4-dioxotetrahydropyrimidin-1(2H)-yl)-3-fluorophenyl)piperidin-4-yl)methyl)piperazin-1-yl)-3-fluorophenyl)amino)-3-(3-(3-methyl-2-oxoimidazolidin-1-yl)piperidin-1-yl)-1,2,4-triazin-6-carboxamide] | < 1 |  | > 30 | 1.56
3 | CN1CCN([C@@H]2CCCN(c3nnc(C(N)=O)c(Nc4ccc(N5CCN(CC6CCN(c7ccc(NC8CCC(=O)NC8=O)c(F)c7)CC6)CC5)c(F)c4)n3)C2)C1=O (stereo partly drawn) [Compound 205, 5-((4-(4-((1-(4-((2,6-dioxopiperidin-3-yl)amino)-3-fluorophenyl)piperidin-4-yl)methyl)piperazin-1-yl)-3-fluorophenyl)amino)-3-((R)-3-(3-methyl-2-oxoimidazolidin-1-yl)piperidin-1-yl)-1,2,4-triazin-6-carboxamide] | < 1 |  | > 30 | 0.57
4 | Cc1ccc(C(=O)N2CCC(CN3CCN(c4ccc(Nc5nc(N6CCC[C@@H](N7CCN(C)C7=O)C6)nnc5C(N)=O)cc4F)CC3)C2)cc1N1CCC(=O)NC1=O (stereo partly drawn) [Compound 150, 5-((4-(4-((1-(3-(2,4-dioxotetrahydropyrimidin-1(2H)-yl)-4-methylbenzoyl)pyrrolidin-3-yl)methyl)piperazin-1-yl)-3-fluorophenyl)amino)-3-((R)-3-(3-methyl-2-oxoimidazolin-1-yl)piperidin-1-yl)-1,2,4-triazin-6-carboxamide] | < 1 | 1.91 | > 30 | 
5 | CN1CCN([C@@H]2CCCN(c3nnc(C(N)=O)c(Nc4ccc(N5CCN(CC6CCN(c7ccc(C(=O)NC8CCC(=O)NC8=O)nc7)C6)CC5)c(F)c4)n3)C2)C1=O (stereo partly shown) [Compound 173] | < 1 |  | > 30 | 
6 | CN1CCN([C@@H]2CCCN(c3nnc(C(N)=O)c(Nc4ccc(N5CCN(CC6CCN(c7ccc8c(c7)C(=O)N(C7CCC(=O)NC7=O)C8=O)CC6)CC5)c(F)c4)n3)C2)C1=O (stereo partly drawn) [Compound 134, 5-((4-(4-((1-(2-(2,6-dioxopiperidin-3-yl)-1,3-dioxoisoindolin-5-yl)piperidin-4-yl)methyl)piperazin-1-yl)-3-fluorophenyl)amino)-3-((R)-3-(3-methyl-2-oxoimidazolin-1-yl)piperidin-1-yl)-1,2,4-triazin-6-carboxamide] | < 1 | 1.72 | > 30 | 
7 | CN1CCN([C@@H]2CCCN(c3nnc(C(N)=O)c(Nc4ccc(N5CCN(CC6CCN(c7ccc8c(c7)n(C)c(=O)n8C7CCC(=O)NC7=O)C6)CC5)c(F)c4)n3)C2)C1=O (stereo partly drawn) [Compound 218, 5-((4-(4-((1-(1-(2,6-dioxopiperidin-3-yl)-3-methyl-2-oxo-2,3-dihydro-H-benzo[d]imidazol-5-yl)pyrrolidin-3-yl)methyl)piperazin-1-yl)-3-fluorophenyl)amino)-3-((R)-3-(3-methyl-2-oxoimidazolidin-1-yl)piperidin-1-yl)-1,2,4-triazin-6-carboxamide] | < 1 |  | > 30 | 
8 | COc1cc(N2CCC(CN3CCN(c4ccc(Nc5nc(N6CCC[C@@H](N7CCN(C)C7=O)C6)nnc5C(N)=O)cc4F)CC3)CC2)ccc1C(=O)NC1CCC(=O)NC1=O (stereo partly drawn) [Compound 181, 5-((4-(4-((1-(4-((2,6-dioxopiperidin-3-yl)carbamoyl)-3-methoxyphenyl)piperidin-4-yl)methyl)piperazin-1-yl)-3-fluorophenyl)amino)-3-((R)-3-(3-methyl-2-oxoimidazolidin-1-yl)piperidin-1-yl)-1,2,4-triazin-6-carboxamide] | < 1 |  | > 30 | 0.78
9 | CN1CCN([C@@H]2CCCN(c3nnc(C(N)=O)c(Nc4ccc(N5CCN(CC6CCN(c7ccc(C(=O)NC8CCC(=O)NC8=O)c8[nH]cnc78)CC6)CC5)c(F)c4)n3)C2)C1=O (stereo partly drawn) [Compound 179, 4-(4-((4-(4-((6-carbamoyl-3-((R)-3-(3-methyl-2-oxoimidazolidin-1-yl)piperidin-1-yl)-1,2,4-triazin-5-yl)amino)-2-fluorophenyl)piperazin-1-yl)methyl)piperidin-1-yl)-N-(2,6-dioxopiperidin-3-yl)-1Hbenzimidazol-7-carboxamide] | < 1 | 1.47 | > 30 | 
10 | CN1CCN([C@@H]2CCCN(c3nnc(C(N)=O)c(Nc4ccc(N5CCN(CC6CCN(c7ccc8c(=O)n(C9CCC(=O)NC9=O)ccc8c7)CC6)CC5)c(F)c4)n3)C2)C1=O (stereo partly drawn) [Compound 232, 5-((4-(4-((1-(2-(2,6-dioxopiperidin-3-yl)-1-oxo-1,2-dihydroisoquinolin-6-yl)piperidin-4-yl)methyl)piperazin-1-yl)-3-fluorophenyl)amino)-3-((R)-3-(3-methyl-2-oxoimidazolidin-1-yl)piperidin-1-yl)-1,2,4-triazin-6-carboxamide] | < 1 |  | > 30 | 0.83
11 | CN1CCN([C@@H]2CCCN(c3nnc(C(N)=O)c(Nc4ccc(N5CCN(CC6CCN(c7ccc(C(=O)NC8CCC(=O)NC8=O)c8c7OCO8)CC6)CC5)c(F)c4)n3)C2)C1=O (stereo partly shown) [Compound 177] | < 1 | 2.99 | > 30 | 
12 | Cc1cc(N2CCC(CN3CCN(c4ccc(Nc5nc(N6CCC[C@@H](N7CCN(C)C7=O)C6)nnc5C(N)=O)cc4F)CC3)CC2)ccc1C(=O)NC1CCC(=O)NC1=O (stereo partly drawn) [Compound 180, 5-((4-(4-((1-(4-((2,6-dioxopiperidin-3-yl)carbamoyl)-3-methylphenyl)piperidin-4-yl)methyl)piperazin-1-yl)-3-fluorophenyl)amino)-3-((R)-3-(3-methyl-2-oxoimidazolidin-1-yl)piperidin-1-yl)-1,2,4-triazin-6-carboxamide] | < 1 | 1.07 |  | < 1
13 | CN1CCN([C@@H]2CCCN(c3nnc(C(N)=O)c(Nc4ccc(N5CCC(CN6CCN(c7ccc8c(c7)C(=O)N(C7CCC(=O)NC7=O)C8=O)CC6)CC5)cc4)n3)C2)C1=O (stereo partly drawn) [Compound 119, 5-((4-(4-((4-(2-(2,6-dioxopiperidin-3-yl)-1,3-dioxoisoindolin-5-yl)piperazin-1-yl)methy 1)piperidin-1-yl)phenyl)amino)-3-((R)-3-(3-methyl-2-oxoimidazolin-1-yl)piperidin-1-yl)-1,2,4-triazin-6-carboxamide] | < 1 | 8.09 |  | 0.38
14 | CN1CCN([C@@H]2CCCN(c3nnc(C(N)=O)c(Nc4ccc(C5CCN(CC6(C)CCN(c7ccc8c(c7)C(=O)N(C7CCC(=O)NC7=O)C8=O)C6)CC5)cc4)n3)C2)C1=O (stereo partly drawn) [Compound 120, 5-((4-(1-((1-(2-(2,6-dioxopiperidin-3-yl)-1,3-dioxoisoindolin-5-yl)-3-methylpyrrolidin-3-yl)methyl)piperidin-4-yl)phenyl)amino)-3-((R)-3-(3-methyl-2-oxoimidazolin-1-yl)piperidin-1-yl)-1,2,4-triazin-6-carboxamide] | < 1 | 1.76 |  | 0.21
